From patent US20230346824A1, “MEANS AND METHODS OF PREVENTING AND TREATING INFECTIONS” (SolyPlus GmbH, priority 2020, published 2023)

Test system: S protein monomer
Assay: MST binding to RED labelled S protein monomer in 50% negative human serum (FIGS. 4, 7, 8, 10, 12)
Set-up: species or system SARS-CoV-2
Conditions: 20 nM S protein monomer, ligand 0.5 µM - 0.2 nM arbitrary units, PBS 0.05% Tween 20, 50% negative human serum

| Structure (SMILES) | binding to S protein monomer detected by MST |
| --- | --- |
| Cn1c(=O)c2c(ncn2C)n(C)c1=O [Coffein, caffeine] | A binding could be detected |
| O=C[C@H](O)[C@@H](O)[C@@H](O)[C@H](O)CO [D+Galactose, D-Galactose] | A binding could be detected |
| O=C[C@H](O)[C@@H](O)[C@@H](O)CO [L+Arabinose, L-Arabinose] | No binding could be detected |
